Results reported in publication PMC4042160, “In silico, in vitro and cellular analysis with a kinome-wide inhibitor panel correlates cellular LRRK2 dephosphorylation to inhibitor activity on LRRK2” (Frontiers in Molecular Neuroscience, 2014).
Structures can show the parent of a compound that is named as a salt.

Assays:
[1] = target: T1, GST-tagged truncated LRRK2 containing residues 970 to 2527 (Homo sapiens, UniProt Q5S007); assay: In vitro LRRKtide peptide-substrate kinase assay, single dose testing (10 μM); type: biochemical; conditions: LRRKtide assay @ 10 μM inhibitor; GST-LRRK2 970-2527; 10 μM ATP; mean, N = 3; solvent control = 100%
T1 construct: GST-tagged truncated LRRK2 containing residues 970 to 2527 (Life Technologies); purchased Life Technologies

[2] = target: T2, LRRK2 phospho-Ser935 (Homo sapiens, UniProt Q5S007); assay: Cellular LRRK2 phosphoserine 935 dephosphorylation spotblot assay in SH-SY5Y cells stably expressing 3xFlag-LRRK2; type: cell-based; conditions: for Phosphorylation level relative to solvent (%) (cellular pS935 assay): @ 5 μM for 2 h, SH-SY5Y stably expressing LRRK2, pS935/total LRRK2
T2 construct: expressed in transfected cells
T2 sequence (Q5S007 whole entry): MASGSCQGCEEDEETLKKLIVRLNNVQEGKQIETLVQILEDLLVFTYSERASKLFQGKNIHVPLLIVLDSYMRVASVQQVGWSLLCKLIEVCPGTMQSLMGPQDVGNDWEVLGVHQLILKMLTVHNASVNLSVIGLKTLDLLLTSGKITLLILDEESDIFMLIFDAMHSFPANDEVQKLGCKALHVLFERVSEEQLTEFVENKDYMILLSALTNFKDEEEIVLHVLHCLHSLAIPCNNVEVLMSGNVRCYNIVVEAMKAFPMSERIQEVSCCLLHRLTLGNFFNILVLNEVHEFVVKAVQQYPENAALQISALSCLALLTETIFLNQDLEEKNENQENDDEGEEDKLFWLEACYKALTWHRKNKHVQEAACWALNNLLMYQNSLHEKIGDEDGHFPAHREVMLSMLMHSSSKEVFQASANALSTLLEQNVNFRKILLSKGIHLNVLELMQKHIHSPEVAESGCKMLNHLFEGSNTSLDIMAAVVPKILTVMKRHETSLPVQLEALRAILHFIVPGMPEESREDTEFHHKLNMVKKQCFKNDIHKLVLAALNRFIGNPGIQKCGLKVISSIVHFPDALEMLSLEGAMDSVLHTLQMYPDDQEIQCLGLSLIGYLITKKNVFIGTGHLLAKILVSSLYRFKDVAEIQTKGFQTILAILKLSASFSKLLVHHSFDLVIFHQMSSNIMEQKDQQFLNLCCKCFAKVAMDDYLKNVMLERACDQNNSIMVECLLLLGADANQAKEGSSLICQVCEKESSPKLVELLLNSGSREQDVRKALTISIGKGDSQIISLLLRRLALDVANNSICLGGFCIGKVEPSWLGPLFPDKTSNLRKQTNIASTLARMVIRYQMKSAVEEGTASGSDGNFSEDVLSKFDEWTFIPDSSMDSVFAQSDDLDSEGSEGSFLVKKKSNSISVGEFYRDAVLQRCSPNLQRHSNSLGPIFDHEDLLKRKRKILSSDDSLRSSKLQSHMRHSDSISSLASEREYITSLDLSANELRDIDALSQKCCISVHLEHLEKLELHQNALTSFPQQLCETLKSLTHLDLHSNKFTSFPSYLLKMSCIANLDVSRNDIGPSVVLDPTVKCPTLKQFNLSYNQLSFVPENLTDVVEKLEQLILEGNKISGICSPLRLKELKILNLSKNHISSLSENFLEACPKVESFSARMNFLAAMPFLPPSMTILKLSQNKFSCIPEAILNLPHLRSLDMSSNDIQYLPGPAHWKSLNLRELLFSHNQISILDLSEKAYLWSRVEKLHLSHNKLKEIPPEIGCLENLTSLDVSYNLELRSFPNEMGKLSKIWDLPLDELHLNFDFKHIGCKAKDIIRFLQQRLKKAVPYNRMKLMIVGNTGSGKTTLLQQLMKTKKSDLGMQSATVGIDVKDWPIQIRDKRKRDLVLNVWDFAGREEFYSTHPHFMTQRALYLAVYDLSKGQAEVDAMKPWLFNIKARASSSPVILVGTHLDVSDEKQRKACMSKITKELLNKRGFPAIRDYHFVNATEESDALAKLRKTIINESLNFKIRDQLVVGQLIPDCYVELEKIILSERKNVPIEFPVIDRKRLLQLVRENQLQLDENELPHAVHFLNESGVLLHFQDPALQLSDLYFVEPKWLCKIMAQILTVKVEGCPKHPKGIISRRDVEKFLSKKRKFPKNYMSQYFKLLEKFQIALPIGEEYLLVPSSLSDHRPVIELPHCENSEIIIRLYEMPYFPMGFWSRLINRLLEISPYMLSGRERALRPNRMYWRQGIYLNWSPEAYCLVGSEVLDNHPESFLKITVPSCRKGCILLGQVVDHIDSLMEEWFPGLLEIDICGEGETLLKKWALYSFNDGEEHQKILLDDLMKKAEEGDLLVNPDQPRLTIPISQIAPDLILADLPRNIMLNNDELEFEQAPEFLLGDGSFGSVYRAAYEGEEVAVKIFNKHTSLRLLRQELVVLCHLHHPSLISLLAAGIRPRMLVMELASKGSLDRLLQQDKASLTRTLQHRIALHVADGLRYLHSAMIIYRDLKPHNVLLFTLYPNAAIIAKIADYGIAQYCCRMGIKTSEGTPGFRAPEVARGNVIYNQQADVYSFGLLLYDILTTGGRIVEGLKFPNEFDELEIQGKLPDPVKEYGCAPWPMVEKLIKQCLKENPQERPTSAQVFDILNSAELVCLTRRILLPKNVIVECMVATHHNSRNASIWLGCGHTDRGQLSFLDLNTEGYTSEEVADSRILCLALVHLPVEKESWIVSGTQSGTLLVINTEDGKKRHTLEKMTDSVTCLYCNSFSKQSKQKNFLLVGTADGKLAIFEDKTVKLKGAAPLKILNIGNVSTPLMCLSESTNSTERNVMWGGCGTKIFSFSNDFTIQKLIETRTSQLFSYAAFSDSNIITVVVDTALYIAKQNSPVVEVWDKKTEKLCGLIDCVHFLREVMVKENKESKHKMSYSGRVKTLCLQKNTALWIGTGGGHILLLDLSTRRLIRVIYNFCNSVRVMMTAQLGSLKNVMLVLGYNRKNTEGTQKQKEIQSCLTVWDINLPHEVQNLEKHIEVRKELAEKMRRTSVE

T1 sequence (Q5S007 970-2527): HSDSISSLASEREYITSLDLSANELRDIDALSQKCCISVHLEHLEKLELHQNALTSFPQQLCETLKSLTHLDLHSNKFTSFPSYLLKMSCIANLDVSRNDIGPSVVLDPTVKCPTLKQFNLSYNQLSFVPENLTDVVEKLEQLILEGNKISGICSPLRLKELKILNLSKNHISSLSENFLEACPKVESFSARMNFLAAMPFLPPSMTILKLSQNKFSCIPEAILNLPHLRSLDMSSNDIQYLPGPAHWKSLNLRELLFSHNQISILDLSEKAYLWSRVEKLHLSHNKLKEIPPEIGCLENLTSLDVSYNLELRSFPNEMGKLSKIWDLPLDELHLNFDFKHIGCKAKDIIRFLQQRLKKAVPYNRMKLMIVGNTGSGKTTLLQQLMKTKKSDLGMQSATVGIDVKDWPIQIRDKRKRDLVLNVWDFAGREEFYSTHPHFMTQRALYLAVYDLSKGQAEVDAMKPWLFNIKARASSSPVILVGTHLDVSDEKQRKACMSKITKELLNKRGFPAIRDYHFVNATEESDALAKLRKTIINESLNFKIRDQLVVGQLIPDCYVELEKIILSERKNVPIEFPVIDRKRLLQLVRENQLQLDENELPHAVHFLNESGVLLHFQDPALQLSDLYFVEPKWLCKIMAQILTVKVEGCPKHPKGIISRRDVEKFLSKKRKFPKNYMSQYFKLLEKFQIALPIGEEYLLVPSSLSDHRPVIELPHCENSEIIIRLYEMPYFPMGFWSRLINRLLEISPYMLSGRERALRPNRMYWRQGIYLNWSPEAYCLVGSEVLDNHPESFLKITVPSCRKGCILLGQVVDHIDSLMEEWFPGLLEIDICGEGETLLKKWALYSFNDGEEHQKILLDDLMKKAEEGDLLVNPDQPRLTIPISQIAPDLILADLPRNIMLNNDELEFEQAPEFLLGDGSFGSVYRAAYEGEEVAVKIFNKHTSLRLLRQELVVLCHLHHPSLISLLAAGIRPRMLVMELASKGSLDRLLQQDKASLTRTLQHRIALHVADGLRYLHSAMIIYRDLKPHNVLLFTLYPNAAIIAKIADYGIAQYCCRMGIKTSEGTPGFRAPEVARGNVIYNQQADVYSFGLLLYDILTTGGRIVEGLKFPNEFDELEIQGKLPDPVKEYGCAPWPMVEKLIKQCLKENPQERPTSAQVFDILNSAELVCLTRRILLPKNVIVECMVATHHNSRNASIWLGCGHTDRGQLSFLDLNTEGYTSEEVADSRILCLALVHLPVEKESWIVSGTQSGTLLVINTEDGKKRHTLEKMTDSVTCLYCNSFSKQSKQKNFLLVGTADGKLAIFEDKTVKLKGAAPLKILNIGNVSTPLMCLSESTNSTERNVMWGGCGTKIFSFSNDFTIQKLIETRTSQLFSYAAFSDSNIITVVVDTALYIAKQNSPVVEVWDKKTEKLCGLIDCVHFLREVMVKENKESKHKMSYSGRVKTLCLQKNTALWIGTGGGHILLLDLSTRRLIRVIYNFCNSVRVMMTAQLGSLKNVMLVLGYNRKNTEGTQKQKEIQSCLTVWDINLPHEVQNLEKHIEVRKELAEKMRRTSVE

Row | Compound | % LRRKtide phosphorylation relative to solvent [1] | Phosphorylation level relative to solvent (%) (cellular pS935 assay) [2] | dephosphorylation of LRRK2 (Ser935) ([2]; 5 μM, 2 h, SH-SY5Y)
1 | COc1cccc(-c2cc(=O)c3ccccc3o2)c1N [PD98059] | 92.53% | 106.55% | –
2 | N#CCCc1ccc2c(c1)-c1[nH]c3ccc([N+](=O)[O-])cc3c1CC(=O)N2 [Alsterpaullone, 2-Cyanoethyl] | 10.82% | 96.84% | –
3 | O=C1Cc2c([nH]c3ccc([N+](=O)[O-])cc23)-c2ccccc2N1 [Alsterpaullone] | 31.34% | 108.54% | –
4 | Cc1cncc2cccc(S(=O)(=O)N3CCCN(C(=O)CN)C[C@@H]3C)c12 [Rho kinase inhibitor IV] | 10.29% | 59.98% | –
5 | CO[C@H]1[C@@H](OC)C[C@H](C)[C@@H](OC)C2=CC(=O)C=C(NC(=O)/C(C)=C/C=C\[C@H](OC)[C@@H](OC(N)=O)/C(C)=C/[C@@H]1C)C2=O [Herbimycin A, Streptomyces sp., Herbimycin A] | 103.97% | 92.79% | –
6 | CCCNC(=O)Nc1ccc(Oc2ncnc3cc(OC)c(OC)cc23)cc1Cl [KRN63] | 68.07% | 62.48% | –
7 | N#CC(c1ccnc(NCCc2cccnc2)n1)c1nc2ccccc2s1 (centres unmarked) [JNK inhibitor V] | 37.61% | 71.85% | –
8 | NCCNc1ncc(C(N)=O)c(Nc2cccc(C(F)(F)F)c2)n1 [Syk inhibitor II] | 3.50% | 76.71% | –
9 | Oc1ccc(Nc2nc(-c3ccc(Cl)cc3)cs2)cc1 [Sphingosine kinase inhibitor] | 106.21% | 144.00% | –
10 | COc1ccc(OC)c2c(=S)c3ccccc3[nH]c12 [Cdk4 inhibitor II, 625987, NSC 625987] | 76.06% | 70.36% | –
11 | NC(=O)Nc1sc(-c2ccc(F)cc2)cc1C(N)=O [IKK-2 inhibitor IV] | 5.13% | 108.38% | –
12 | c1ccc(-c2[nH]ncc2-c2ccnc3ccccc23)nc1 [TGF-b RI kinase inhibitor] | 47.94% | 71.73% | –
13 | Cc1nc2cc3nc(-c4cccs4)cnc3cc2n1C [AGL 2043] | 29.68% | 90.06% | –
14 | CC[n+]1c(/C=C/N(C)c2ccccc2)n(-c2ccccc2)c2ccc(-c3nc4ccccc4s3)cc21.[I-] [Akt inhibitor IV] | 18.59% | 76.44% | –
15 | N#Cc1cnc2cnc(NCc3cccnc3)cc2c1Nc1ccc(F)c(Cl)c1 [Tpl2 kinase inhibitor] | 55.04% | 102.54% | –
16 | N#CC(C#N)=C(N)/C(C#N)=C/c1ccc(O)cc1 [AG 112] | 77.45% | 60.39% | –
17 | O=C1C(Cl)=C(N2C(=O)CCC2=O)C(=O)c2ccccc21 [MEK inhibitor II] | 21.13% | 108.79% | –
18 | Nc1ncnc2n[nH]c(Nc3ccc(F)cc3)c12 [MNK1 inhibitor] | 12.59% | 70.32% | –

Row | Compound | % LRRKtide phosphorylation relative to solvent [1] | Phosphorylation level relative to solvent (%) (cellular pS935 assay) [2] | dephosphorylation of LRRK2 (Ser935) ([2]; 5 μM, 2 h, SH-SY5Y)
19 | Fc1ccc(-c2nc3n(c2-c2ccncc2)CCS3)cc1 [SKF-86002] | 94.81% | 121.09% | –
20 | N#Cc1c(NC(=O)c2cccc3ccccc23)sc2c1CCCC2 [JNK inhibitor IX] | 61.45% | 42.05% | –
21 | CC(=O)c1ccc(N2CCOCC2)cc1O [DNA-PK inhibitor III] | 68.41% | 71.78% | –
22 | O=C1NC(=O)C(c2cn(CCCO)c3ncccc23)=C1c1cnccn1 [GSK-3b inhibitor XI] | 32.34% | 87.77% | –
23 | CC(C)c1nn(-c2c(Cl)cccc2Cl)c2nc(Cc3ccc(OCCO)cc3)[nH]c(=O)c12 [Cdk/Crk inhibitor] | 54.91% | 97.11% | –
24 | N#C/C(=C/c1ccc(O)c(O)c1)C(=O)NCc1ccccc1 [AG490] | 34.24% | 50.68% | 49.32%
25 | PI 3-KbInhibitor II | 93.55% | 66.60% | –
26 | O=c1c(-c2ccc(F)cc2)c(-c2ccncc2)[nH]n1-c1ccc(Cl)cc1 [p38 MAP kinase inhibitor] | 132.68% | 93.68% | –
27 | CO[C@H]1C[C@@H]2CC[C@@H](C)[C@@](O)(O2)C(=O)C(=O)N2CCCC[C@H]2C(=O)O[C@H]([C@H](C)C[C@@H]2CC[C@@H](O)[C@H](OC)C2)CC(=O)[C@H](C)/C=C(\C)[C@@H](O)[C@@H](OC)C(=O)[C@H](C)C[C@H](C)/C=C/C=C/C=C/1C [Rapamycin] | 101.20% | 65.24% | –
28 | CCCCc1c(-c2ccc(OC)cc2)[nH]c2nccnc12 [Aloisine, RP106] | 17.45% | 109.11% | –
29 | COc1ccc2c(c[n+](C)c3c4cc5c(cc4ccc23)OCO5)c1OC [Chelerythrine chloride] | 77.91% | 67.25% | –
30 | O=c1[nH]c2ccccc2n1C1CCN(Cc2ccc(-c3nc4cc5nc[nH]c5cc4nc3-c3ccccc3)cc2)CC1 [Akti-1/2] | 99.69% | 77.80% | –
31 | O=C1NC(=O)C(c2cn(CCCn3ccnc3)c3ccccc23)=C1Nc1ccccc1 [PKCb inhibitor] | 3.56% | 86.12% | –
32 | Nc1[nH]nc2nnc(-c3c(-c4ccccc4)nn4ccccc34)cc12 [ERK inhibitor II, FR180204, FR180204] | 14.06% | 65.88% | –
33 | O=c1c2ccccc2[nH]c(=S)n1CCN1CCC(=C(c2ccc(F)cc2)c2ccc(F)cc2)CC1 [Diacylglycerol kinase inhibitor II] | 119.82% | 84.54% | –
34 | N#C/C(=C(/N)Sc1ccc(N)cc1)c1ccccc1C(F)(F)F [MEK 1/2 inhibitor] | 61.26% | 117.92% | –
35 | O=S(=O)(c1cccc2cnccc12)N1CCCNCC1 [HA 1077, Dihydrochloride Fasudil, Fasudil] | 79.40% | 89.37% | –
